Several values for one entry are separate records, joined by “and”; a condition that tells them apart may be missing. Equal values may be shown once.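 Five concentrations, 48 hours, 96-well plates. The concentration for 50% growth inhibition is given as GI50. The concentration for full growth arrest is given as TGI.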
Legend:
Assay in all cases: NCI anticancer screen, dose series, 48 h
[1] = system: HOP-92 NSCLC
[2] = system: SK-MEL-5 melanoma
[3] = system: CAKI-1 renal
[4] = system: SW-620 colon
[5] = system: RXF 393 renal
[6] = system: IGROV1 ovarian
[7] = system: SNB-75 CNS
[8] = system: SF-268 CNS
[9] = system: EKVX NSCLC
[10] = system: SK-MEL-2 melanoma
[11] = system: UACC-257 melanoma
[12] = system: MCF7 breast
[13] = system: MOLT-4 leukemia
[14] = system: NCI-H460 lung
[15] = system: OVCAR-5 ovarian
[16] = system: SK-MEL-28 melanoma
[17] = system: HCT-116 colon
[18] = system: CCRF-CEM leukemia

SMILES: COC(=O)c1ccccc1C1CN=NC12Cc1c(C)c3c(c(C)c1C2=O)CCC3 (stereo not given)
- TGI [1]: > 100 µM
- TGI [2]: > 100 µM
- TGI [3]: > 100 µM
- TGI [4]: > 100 µM
- TGI [5]: > 100 µM
- TGI [6]: > 100 µM
- TGI [7]: > 100 µM
- TGI [8]: > 100 µM
- TGI [9]: > 100 µM
- TGI [10]: > 100 µM
- TGI [11]: > 100 µM
- TGI [12]: > 100 µM
- TGI [13]: > 100 µM
- TGI [14]: > 100 µM
- TGI [15]: > 100 µM
- TGI [16]: > 100 µM
- TGI [17]: > 100 µM
- TGI [18]: > 100 µM

SMILES: CC(=O)OCC1OC(Sc2nc(-c3ccc(C)cc3)c(C#N)c(=O)n2C2OC(COC(C)=O)C(OC(C)=O)C(OC(C)=O)C2OC(C)=O)C(OC(C)=O)C(OC(C)=O)C1OC(C)=O (stereo not given)
- GI50 [1]: > 100 µM and 41.7 µM
- TGI [1]: > 100 µM
- TGI [2]: > 100 µM
- TGI [3]: > 100 µM
- TGI [4]: > 100 µM
- TGI [5]: > 100 µM
- TGI [6]: > 100 µM
- TGI [7]: > 100 µM
- TGI [8]: > 100 µM
- TGI [9]: > 100 µM
- TGI [10]: > 100 µM
- TGI [11]: > 100 µM
- TGI [12]: > 100 µM
- TGI [13]: > 100 µM
- TGI [14]: > 100 µM
- TGI [15]: > 100 µM
- TGI [16]: > 100 µM
- TGI [17]: > 100 µM
- TGI [18]: > 100 µM

SMILES: CCOC(=O)C1C(=O)CC(C)(O)C(C(=O)OCC)C1c1ccc(O)c(OC)c1 (stereo not given)
- TGI [1]: > 100 µM
- TGI [2]: > 100 µM
- TGI [3]: > 100 µM
- TGI [4]: > 100 µM
- TGI [5]: > 100 µM
- TGI [6]: > 100 µM
- TGI [7]: > 100 µM
- TGI [8]: > 100 µM
- TGI [9]: > 100 µM
- TGI [10]: > 100 µM
- TGI [11]: > 100 µM
- TGI [12]: > 100 µM
- TGI [13]: > 100 µM
- TGI [14]: > 100 µM
- TGI [15]: > 100 µM
- TGI [16]: > 100 µM
- TGI [17]: > 100 µM
- TGI [18]: > 100 µM

Reference: PubChem BioAssay (NCI)
